Results from patent publication US20160128953A1, “TRANS-CLOMIPHENE AND ITS ANALOGUES AS AGENTS THAT INCREASE BONE MINERAL DENSITY” (REPROS THERAPEUTICS INC., priority 2013, published 2016).
Marks after values point to notes of the source that are not given here.

Experiments:
[1] = system: human males with secondary hypogonadism; assay: Serum CTX (biomarker of bone resorption) by immunoassay; assay type: in vivo
Experimental: (§1) The effect of the isolated trans-clomiphene isomer on the serum level of biomarkers of bone resorption was assessed in human males with secondary hypogonadism.
(§2) Adult male subjects with a morning total testosterone blood level of <300 ng/dl and a serum LH of <15 IU/ml were administered either trans-clomiphene ([…] or 25 mg/day via oral capsule) or a topical testosterone gel (Testim®, 50 mg applied daily) over a three month period. Quantitative determination of baseline serum (circulating) estrogen (E2), dihydrotestosterone (DHT), sex hormone binding globulin (SHBG), P1NP-1 and CTX measurements were made in the subjects by immunoassay. Treatment with either trans-clomiphene (12.5 mg or 25 mg) or Testim® was then initiated. Follow-up measurements were taken at 3 weeks post initial dose, 6 months post initial dose and one month after cessation of treatment. The results are presented below at Table 1:
(§3) The effects of trans-clomiphene and Testim® on the level of serum biomarkers of bone formation (P1NP) and bone resorption (CTX) are illustrated at FIGS. 1 and 2. […] The lower levels of P1NP-1 at both trans-clomiphene doses are well within the normal range (15-80 μg/L). A decrease in CTX levels was also observed at both trans-clomiphene dosages; however, the decrease was much stronger at the 25 mg dose. […]

[2] = system: human males with secondary hypogonadism; assay: Serum P1NP-1 (biomarker of bone formation) by immunoassay; assay type: in vivo
Experimental: as §1, §2, §3

[3] = system: human males with secondary hypogonadism; assay: Serum hormone (DHT, E2) and SHBG levels by immunoassay in treated men; assay type: in vivo; settings: for DHT / E2 / SHBG: serum
Experimental: as §1
Adult male subjects with a morning total testosterone blood level of <300 ng/dl and a serum LH of <15 IU/ml were administered either trans-clomiphene (12 mg/day or 25 mg/day via oral capsule) or a topical testosterone gel (Testim®, 50 mg applied daily) over a three month period. Quantitative determination of baseline serum (circulating) estrogen (E2), dihydrotestosterone (DHT), sex hormone binding globulin (SHBG), P1NP-1 and CTX measurements were made in the subjects by immunoassay. Treatment with either trans-clomiphene (12.5 mg or 25 mg) or Testim® was then initiated. […]

hypogonadal males = assay: Total hip bone mineral density (BMD) by DEXA scan; assay type: in vivo, human; settings: 6 months daily trans-clomiphene (12.5 mg, or up-titrated to 25 mg/day); 15 hypogonadal males; FIG. 3
Experimental: The effect of trans-clomiphene on total hip bone mineral density (BMD) was assessed by dual-energy x-ray absorptiometry (DEXA) scans in 15 hypogonadal males (morning testosterone less than 300 ng/dL) with body mass index (BMI) ranging between 25 and 42 and no evidence of bone disease (including ostepenia) prior to treatment. DEXA scans were performed prior to treatment with trans-clomiphene to determine baseline measurements and after 6 months of daily administration of trans-clomiphene. Four of the 15 subjects received 12.5 mg trans-clomiphene administered daily throughout the 6 month period. Eleven of the 15 subjects began at the 12.5 mg/day dose but were later up-titrated to 25 mg/day. Total hip BMD was also assessed in 25 placebo (control) subjects at the same time points. BMD measurements at the 6 month time point in both treated and control subjects were compared to baseline measurements.

[4] = 12.5 mg Androxal daily oral, 3 months
[5] = 12.5 mg Androxal daily oral, 6 weeks
[6] = 12.5 mg Androxal daily oral, Baseline (before TxT)
[7] = 12.5 mg Androxal daily oral, Post TxT (one month after cessation)
[8] = 25 mg Androxal daily oral, 3 months
[9] = 25 mg Androxal daily oral, 6 weeks
[10] = 25 mg Androxal daily oral, Baseline (before TxT)
[11] = 25 mg Androxal daily oral, Post TxT (one month after cessation)

Structure (SMILES): CCN(CC)CCOc1ccc(/C(=C(/Cl)c2ccccc2)c2ccccc2)cc1 [Androxal, trans-clomiphene]
- decrease in serum CTX levels, 25 mg dose compared with 12.5 mg dose ([1]; 25 mg trans-clomiphene daily): much stronger
- change in serum CTX levels ([1]; both trans-clomiphene dosages (12.5 mg and 25 mg daily), FIG. 2): decrease
- change in serum P1NP-1 levels, 25 mg dose compared with 12.5 mg dose ([2]; 25 mg trans-clomiphene daily, dose dependency): more robust decrease
- change in serum P1NP-1 levels ([2]; either dose of trans-clomiphene (12.5 mg or 25 mg daily), FIG. 1): decrease
- serum estrogen levels after cessation of treatment compared with baseline ([3]; after cessation of trans-clomiphene treatment): remained elevated
- change in serum estradiol 17β (E2) ([3]; daily administration of trans-clomiphene for 6 weeks and 3 months): significant increase
- DHT [3, 4]: 20.4^ ng/DL
- E2 [3, 4]: 56.7*¶ pg/mL
- SHBG [3, 4]: 29.3 nmol/L
- DHT [3, 5]: 22.7*^ ng/DL
- E2 [3, 5]: 52.1*¶ pg/mL
- SHBG [3, 5]: 28.6 nmol/L
- DHT [3, 6]: 15 ng/dL
- E2 [3, 6]: 20.8 pg/mL
- SHBG [3, 6]: 24.7 nmol/L
- DHT [3, 7]: 13.7 ng/dL
- E2 [3, 7]: 39.1* pg/mL
- SHBG [3, 7]: 24.9 nmol/L
- DHT [3, 8]: 23.2*^ ng/DL
- E2 [3, 8]: 46.3*¶ pg/mL
- SHBG [3, 8]: 29.5 nmol/L
- DHT [3, 9]: 22.2*^ ng/DL
- E2 [3, 9]: 48.3*¶ pg/mL
- SHBG [3, 9]: 32 nmol/L
- DHT [3, 10]: 15.3 ng/dL
- E2 [3, 10]: 24.7 pg/mL
- SHBG [3, 10]: 26.4 nmol/L
- DHT [3, 11]: 15.8 ng/dL
- E2 [3, 11]: 40.2* pg/mL
- SHBG [3, 11]: 28.7 nmol/L
- increase in total hip BMD versus baseline (hypogonadal males): about 1.23%
